Assay results: article PMC4710668, “Bioactivation of food genotoxicants 5-hydroxymethylfurfural and furfuryl alcohol by sulfotransferases from human, mouse and rat: a comparative study” (Archives of Toxicology, 2014)

Tests used:
Test in all cases: FFA sulfoconjugation assay (N6-MF-A formation with adenosine as scavenger)
Format in all cases: biochemical
rSult2a1 = target: T1, rSult2a1 (Rattus norvegicus, UniProt P15709)
T1 construct: made in house; host or cells: Salmonella typhimurium TA1538 (cytosolic fraction, enzyme not purified)
T1 sequence (P15709 1-284): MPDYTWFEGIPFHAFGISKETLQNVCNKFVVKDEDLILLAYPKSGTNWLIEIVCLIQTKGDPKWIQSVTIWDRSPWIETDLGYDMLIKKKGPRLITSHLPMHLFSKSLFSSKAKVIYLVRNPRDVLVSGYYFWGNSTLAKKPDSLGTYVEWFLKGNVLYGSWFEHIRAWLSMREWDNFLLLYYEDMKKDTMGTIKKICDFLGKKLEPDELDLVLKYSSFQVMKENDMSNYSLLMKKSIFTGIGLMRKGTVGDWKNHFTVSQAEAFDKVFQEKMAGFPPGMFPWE
Method: (§1) Cytosolic fractions containing individual SULT forms were prepared from transgenic S. typhimurium TA1538. Table S1 in the Supplementary Material provides a summary of the thirty SULTs used in the current study together with references describing the cloning of the respective S. typhimurium TA1538 strains. The expressed SULT forms are denoted with the prefixes h, m and r for human, mouse and rat enzymes, respectively. Bacteria were grown in Luria Broth medium containing ampicillin (100 µg/ml) by stirring for 8 h at 200 revolutions/min at 37 °C. The bacterial suspensions were centrifuged at 5,000 g for 10 min. The sediments were washed twice with 25 ml of 10 mM potassium phosphate buffer (pH 7.4)/50 mM potassium chloride (KCP buffer) and centrifuged again. The pellets were taken up in 800 µl KCP buffer and sonicated thrice for 15 s with 30 s pauses in between. The soluble fraction was attained by centrifuging for 1 h at 100,000 g. The supernatants (in the following termed cytosolic preparations) were frozen at −80 °C. The protein concentrations were determined according to a bicinchoninic acid (BCA) assay protocol. The SULT concentrations in the cytosolic preparations were estimated after electrophoretic separation and immunodetection using inclusion bodies of different SULT forms as standards (Teubner et al. [2007]). The preparation of SULT inclusion bodies and the immunodetection of SULTs is described in the Supplementary Material, which also contains a representative immunoblot of different amounts of rSult1a1standard and a cytosolic preparation of S. typhimurium expressing rSult1a1 (Fig. S1).
(§2) The reaction mixtures were prepared as described for HMF. In addition, they contained 10 mM adenosine as a nucleophilic scavenger. Following incubation for 20 min at 37 °C, sulfoconjugation reactions were stopped by adding 100 µl cold methanol containing 175 fmol of [^15N5]N ^6-MF-A as the internal standard, mixed and centrifuged at 15,000 g for 10 min. The clear supernatants were subjected to UPLC-MS/MS analyses. Incubations were performed as quadruplicates. At higher concentrations, FFA reacts spontaneously with adenosine at low, but detectable, levels. To correct for the SULT-independent adduct formation, mixtures with SULT-deficient cytosols were carried along simultaneously in duplicate. Controls were subtracted from the experimental samples.
(§3) The ribonucleoside adduct N ^6-((furan-2-yl)methyl)-adenosine (N ^6-MF-A) was analyzed by isotope-dilution UPLC-MS/MS with the same system described above using a HSS T3 column (1.8 µm, 2.1 × 100 mm, Waters). Samples of 8 µl were eluted with 10 mM ammonium bicarbonate buffer, pH 8.0 (A) and methanol (B) using an 6-min gradient from 98 % solvent A to 15 % solvent A at 0.35 ml/min flow rate (Yin et al. [2013]). The electrospray interface of the mass spectrometer operated in the positive ion mode. The fragmentations of N ^6-MF-A into the aglycone cation [N ^6-((furan-2-yl)methyl)-adenine-H]^+ (m/z = 348.1 → 216.1), the cleavage of the 2-methylfuranyl cation (m/z = 348.1 → 81.0) and the release of [N ^6-methyl-adenine-H]^+ (m/z = 348.1 → 148.0) were monitored together with the corresponding fragmentations of the isotope-labeled internal standard [^15N5]N ^6-MF-A for the formation of the aglycone (m/z = 353.1 → 221.1), the 2-methylfuran cation (m/z = 353.1 → 81.0) and ^15N5-labeled N ^6-methyl-adenine (m/z = 353.1 → 153.0). The N ^6-MF-A content of the incubation mixture was calculated from the ratio of peak areas resulting from the total ion current of all three MRM signals of the analyte. For the fragmentation of N ^6-MF-A ([^15N5]N ^6-MF-A), collision energies were 20, 25 and 35 eV for the transitions m/z = 348.1 → 216.1 (m/z = 353.1 → 221.1), m/z = 348.1 → 148.0 (m/z = 353.1 → 153.0) and m/z = 348.1 → 81.0 (m/z = 353.1 → 81.0), respectively. […]

hSULT2B1a = target: T2, hSULT2B1a (Homo sapiens, UniProt O00204)
T2 construct: made in house; host or cells: Salmonella typhimurium TA1538 (cytosolic fraction, not purified)
T2 sequence (O00204 1-350 isoform O00204-2): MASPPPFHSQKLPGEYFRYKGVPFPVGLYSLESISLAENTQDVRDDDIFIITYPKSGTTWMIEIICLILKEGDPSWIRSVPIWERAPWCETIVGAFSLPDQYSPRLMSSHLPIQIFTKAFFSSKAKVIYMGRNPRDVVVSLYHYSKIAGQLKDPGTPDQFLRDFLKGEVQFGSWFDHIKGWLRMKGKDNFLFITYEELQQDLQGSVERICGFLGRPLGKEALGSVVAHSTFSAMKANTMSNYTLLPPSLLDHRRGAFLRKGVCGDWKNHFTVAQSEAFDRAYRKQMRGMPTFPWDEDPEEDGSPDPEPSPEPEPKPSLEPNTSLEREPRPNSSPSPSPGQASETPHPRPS
Method: as §1, §2, §3

mSult2a1 = target: T3, mSult2a1 (Mus musculus, UniProt P52843)
T3 construct: made in house; host or cells: Salmonella typhimurium TA1538 (cytosolic fraction, enzyme not purified)
T3 sequence (P52843 1-285): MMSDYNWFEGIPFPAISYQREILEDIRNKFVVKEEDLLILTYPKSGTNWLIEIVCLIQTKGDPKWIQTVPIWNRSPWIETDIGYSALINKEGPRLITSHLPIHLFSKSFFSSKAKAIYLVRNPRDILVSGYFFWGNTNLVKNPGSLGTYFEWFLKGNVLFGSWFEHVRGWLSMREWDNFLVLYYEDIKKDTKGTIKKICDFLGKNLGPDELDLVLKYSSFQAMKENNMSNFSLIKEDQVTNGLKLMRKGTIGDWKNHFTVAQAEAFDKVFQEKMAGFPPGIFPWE
Method: as §1, §2, §3

SMILES: OCc1ccco1 [FFA, furfuryl alcohol]
- Rate of N6-MF-A formation (rSult2a1; 0.1 mM FFA): <18 fmol N ^6-MF-A/mg/min
- Rate of N6-MF-A formation (rSult2a1; 1 mM FFA): 24.8 ± 1.4 fmol N ^6-MF-A/mg/min
- Rate of N6-MF-A formation (rSult2a1; 10 mM FFA): 228 ± 7 fmol N ^6-MF-A/mg/min
- Rate of N6-MF-A formation (hSULT2B1a; 0.1 mM FFA): <18 fmol N ^6-MF-A/mg/min
- Rate of N6-MF-A formation (hSULT2B1a; 1 mM FFA): <20 fmol N ^6-MF-A/mg/min
- Rate of N6-MF-A formation (hSULT2B1a; 10 mM FFA): <44 fmol N ^6-MF-A/mg/min
- Rate of N6-MF-A formation (mSult2a1; 0.1 mM FFA): <18 fmol N ^6-MF-A/mg/min
- Rate of N6-MF-A formation (mSult2a1; 1 mM FFA): <20 fmol N ^6-MF-A/mg/min
- Rate of N6-MF-A formation (mSult2a1; 10 mM FFA): 154 ± 2 fmol N ^6-MF-A/mg/min
